# Tests used:
# [1] = system: NCI-H1975 cells; test: NCI-H1975 xenograft model in B-NDG mice; type: in vivo; settings: Table 21 study
# Description: The lengths of the long axis and the short axis of the tumor were measured and the volume of the tumor was calculated as 0.5×(long axis)×(short axis)^2. The tumor growth inhibition (TGI) was calculated using the following formula: TGI (%)=[1−(Ti−T0)/(Vi−V0)]×100. Ti is the average tumor volume in the treatment group on day i. T0 is the average tumor volume in the treatment group on day zero. Vi is the average tumor volume in the control group on day i. V0 is the average tumor volume in the control group on day zero. T-test was performed for statistical analysis. […] P<0.05 is a threshold to indicate significant difference.
# [2] = system: HCC827 cells; test: Internalization of antibodies targeting EGFR and/or MET in HCC827 cells; type: cell-based, human; settings: HCC827, 1 hour
# Description: (§1) Anti-EGFR antibodies, anti-MET antibodies, or anti-EGFR/MET bispecific antibodies, together with the pHAb-Goat anti-human IgG secondary antibody were added to NCI-H1975 cells (ATCC, Reference No.: CRL-5908), HCC827 cells (ATCC, Reference No.: CRL-2868) and NCI-H292 (ATCC, Reference No.: CRL-1848) cells, respectively, and incubated for 1 hour. The cells were centrifuged and washed with FACS buffer. MFI was measured using a flow cytometer. Endocytosis rates of antibodies were calculated. For isotype control (ISO), an antibody targeting an irrelevant target protein was used.
# [3] = system: SNU-5 cells; test: SNU-5 xenograft model (gastric carcinoma) in B-NDG mice; type: in vivo; settings: for Tumor volume Day 10: 10 days after grouping; for TGI (%): Day 24; for Tumor volume Day 0: day of grouping; for Tumor volume Day 24: end of experiment; for Survival: surviving/total mice
# [4] = system: patient-derived lung tumor fragments (PDX001); test: Human lung PDX001 model; type: in vivo, B-NDG mice; settings: for TGI (%): Day 23; for Tumor volume Day 0: day of grouping; for Survival: surviving/total mice
# [5] = system: patient-derived lung tumor fragments (PDX002); test: Human lung PDX002 model; type: in vivo, B-NDG mice; settings: once a week x2; for Tumor volume Day 0: day of grouping; for Survival: surviving/total mice
# Description: The control group mice were injected with PBS (G1).
# [6] = system: human lung cancer cell line NCI-H1975; test: In vitro killing activity, IncuCyte; type: cell-based
# Description: Different concentrations of purified antibodies (10 μg/mL, 3.33 μg/mL, 1.11 μg/mL, 0.37 μg/mL, 0.123 μg/mL, 0.041 μg/mL, 0.013 μg/mL, and 0.004 μg/mL) and corresponding ADCs were used to treat human lung cancer cell line NCI-H1975 (5×10^3) cultured in a cell culture plate, and the killing activity was detected after 72 hours of incubation in IncuCyte (Sartorius AG, IncuCyte® S3).
# [7] = system: patient-derived pancreatic tumor fragments (PDX003); test: Human pancreatic PDX003 model; settings: for TGI (%): Day 21; for Tumor volume Day 0: day of grouping; for Survival: surviving/total mice
# Description: The antibodies were tested for their effect in two human pancreatic PDX (PDX003 and PDX004) models.
# In PDX003 model, B-NDG mice were engrafted in the right flank with patient-derived pancreatic tumor fragments (2 mm×2 mm×2 mm). When the tumors in the mice reached a volume of about 300-400 mm^3, the mice were randomly placed into different groups based on the volume of the tumor.
# [8] = system: NCI-H292 cells; test: NCI-H292 xenograft model in B-NDG mice; settings: for Tumor volume Day 14: 14 days after grouping; for Tumor volume Day 14 / Tumor volume Day 0 / Tumor volume Day 24: 1×10^7 NCI-H292 cells, about 300 mm^3 at grouping; for TGI (%): Day 24; for TGI (%) / Survival: 1×10^7 NCI-H292 cells experiment; for Tumor volume Day 0: day of grouping; for Tumor volume Day 24: end of experiment; for Survival: surviving/total mice
# Description: The antibodies were tested for their effect on tumor growth in vivo in a model of lung carcinoma. About 1×10^7 NCI-H292 cells were injected subcutaneously in B-NDG mice. When the tumor in mice reached a volume of about 300 mm^3, the mice were randomly placed into different groups based on the volume of the tumor. The mice were then injected with PBS or antibodies by intravenous (i.v.) administration. The frequency of administration was once a week (2 administrations in total).
# [9] = system: patient-derived pancreatic tumor fragments (PDX004); test: Human pancreatic PDX004 model; type: in vivo, B-NDG mice; settings: Day 35
# Text: The tested antibody and the frequency of administration was similar to Table 28.
# [10] = system: NCI-H292 cells; test: Internalization of antibodies targeting EGFR and/or MET in NCI-H292 cells; type: cell-based, human; settings: NCI-H292, 1 hour
# Description: as §1
substance,measurement,setting,value
"Amivantamab analog: analog of Amivantamab, fully human bispecific antibody targeting EGFR and MET; SEQ ID NOs: 77-80",Survival,[1]; 10 mg/kg i.v. QW x2,5/5
same,Tumor volume Day 11,[1]; 10 mg/kg i.v. QW x2,143 ± 20 mm^3
same,Tumor volume Day 21,[1]; 10 mg/kg i.v. QW x2,294 ± 40 mm^3
same,TGI (%),"[1]; 10 mg/kg i.v. QW x2, Day 21",98.4%
same,Tumor volume Day 0,"[1]; 10 mg/kg i.v. QW x2, day of grouping",260 ± 19 mm^3
same,MFI,[2],30401
same,Positive Population,[2],88.90%
same,Tumor volume Day 10,[3]; 3 mg/kg i.v. QW x2,294 ± 10 mm^3
same,TGI (%),[3]; 3 mg/kg i.v. QW x2,8.4%
same,Tumor volume Day 0,[3]; 3 mg/kg i.v. QW x2,200 ± 5 mm^3
same,Tumor volume Day 24,[3]; 3 mg/kg i.v. QW x2,1111 ± 64 mm^3
same,Survival,[3]; 3 mg/kg i.v. QW x2,5/5
same,Tumor volume Day 10,[3]; 10 mg/kg i.v. QW x2,72 ± 9 mm^3
same,TGI (%),[3]; 10 mg/kg i.v. QW x2,106.4%
same,Tumor volume Day 0,[3]; 10 mg/kg i.v. QW x2,200 ± 9 mm^3
same,Tumor volume Day 24,[3]; 10 mg/kg i.v. QW x2,136 ± 35 mm^3
same,Survival,[3]; 10 mg/kg i.v. QW x2,5/5
same,Tumor volume Day 12,[4]; 1 mg/kg i.v. QW x2,1144 ± 86 mm^3
same,Tumor volume Day 23,[4]; 1 mg/kg i.v. QW x2,3077 ± 235 mm^3
same,TGI (%),[4]; 1 mg/kg i.v. QW x2,−24.7%
same,Tumor volume Day 0,[4]; 1 mg/kg i.v. QW x2,223 ± 18 mm^3
same,Survival,[4]; 1 mg/kg i.v. QW x2,4/6
same,Tumor volume Day 12,[4]; 3 mg/kg i.v. QW x2,1448 ± 195 mm^3
same,Tumor volume Day 23,[4]; 3 mg/kg i.v. QW x2,2465 ± 145 mm^3
same,TGI (%),[4]; 3 mg/kg i.v. QW x2,2.0%
same,Tumor volume Day 0,[4]; 3 mg/kg i.v. QW x2,223 ± 18 mm^3
same,Survival,[4]; 3 mg/kg i.v. QW x2,3/6
same,Tumor volume Day 12,[4]; 10 mg/kg i.v. QW x2,1132 ± 77 mm^3
same,Tumor volume Day 23,[4]; 10 mg/kg i.v. QW x2,2666 ± 212 mm^3
same,TGI (%),[4]; 10 mg/kg i.v. QW x2,−6.8%
same,Tumor volume Day 0,[4]; 10 mg/kg i.v. QW x2,223 ± 22 mm^3
same,Survival,[4]; 10 mg/kg i.v. QW x2,6/6
same,Tumor volume Day 10,[5]; 1 mg/kg,805 ± 99 mm^3
same,Tumor volume Day 21,[5]; 1 mg/kg,2279 ± 253 mm^3
same,Tumor volume Day 0,[5]; 1 mg/kg,267 ± 12 mm^3
same,Survival,[5]; 1 mg/kg,0/6
same,Tumor volume Day 10,[5]; 3 mg/kg,686 ± 55 mm^3
same,Tumor volume Day 21,[5]; 3 mg/kg,1791 ± 214 mm^3
same,Tumor volume Day 35,[5]; 3 mg/kg,3509 ± 239 mm^3
same,TGI (%),"[5]; 3 mg/kg, Day 35",−7.1%
same,Tumor volume Day 0,[5]; 3 mg/kg,267 ± 13 mm^3
same,Survival,[5]; 3 mg/kg,3/6
same,IC50,"[6]; NCI-H1975, 72 hours",Not detected
same,ability to kill NCI-H1975,[6]; highest concentration of 10 μg/m,neither E-6C4-M-2F11 nor Amivantamab analog has the ability to kill
same,Tumor volume Day 11,[7]; 1 mg/kg i.v. QW x2,811 ± 65 mm^3
same,Tumor volume Day 21,[7]; 1 mg/kg i.v. QW x2,1410 ± 130 mm^3
same,TGI (%),[7]; 1 mg/kg i.v. QW x2,−2.0%
same,Tumor volume Day 0,[7]; 1 mg/kg i.v. QW x2,340 ± 18 mm^3
same,Survival,[7]; 1 mg/kg i.v. QW x2,6/6
same,Tumor volume Day 11,[7]; 3 mg/kg i.v. QW x2,705 ± 62 mm^3
same,Tumor volume Day 21,[7]; 3 mg/kg i.v. QW x2,1216 ± 96 mm^3
same,TGI (%),[7]; 3 mg/kg i.v. QW x2,16.5%
same,Tumor volume Day 0,[7]; 3 mg/kg i.v. QW x2,340 ± 18 mm^3
same,Survival,[7]; 3 mg/kg i.v. QW x2,6/6
same,Tumor volume Day 11,[7]; 10 mg/kg i.v. QW x2,666 ± 60 mm^3
same,Tumor volume Day 21,[7]; 10 mg/kg i.v. QW x2,1146 ± 123 mm^3
same,TGI (%),[7]; 10 mg/kg i.v. QW x2,23.2%
same,Tumor volume Day 0,[7]; 10 mg/kg i.v. QW x2,340 ± 16 mm^3
same,Survival,[7]; 10 mg/kg i.v. QW x2,6/6
same,Tumor volume Day 14,[8]; 1 mg/kg i.v. QW x2,1338 ± 243 mm^3
same,TGI (%),[8]; 1 mg/kg i.v. QW x2,0.4%
same,Tumor volume Day 0,[8]; 1 mg/kg i.v. QW x2,311 ± 14 mm^3
same,Tumor volume Day 24,[8]; 1 mg/kg i.v. QW x2,2485 ± 536 mm^3
same,Survival,[8]; 1 mg/kg i.v. QW x2,4/5
same,Tumor volume Day 14,[8]; 3 mg/kg i.v. QW x2,1380 ± 320 mm^3
same,TGI (%),[8]; 3 mg/kg i.v. QW x2,26.2%
same,Tumor volume Day 0,[8]; 3 mg/kg i.v. QW x2,314 ± 11 mm^3
same,Tumor volume Day 24,[8]; 3 mg/kg i.v. QW x2,1925 ± 389 mm^3
same,Survival,[8]; 3 mg/kg i.v. QW x2,4/5
same,Tumor volume Day 14,[8]; 10 mg/kg i.v. QW x2,915 ± 150 mm^3
same,TGI (%),[8]; 10 mg/kg i.v. QW x2,44.5%
same,Tumor volume Day 0,[8]; 10 mg/kg i.v. QW x2,327 ± 11 mm^3
same,Tumor volume Day 24,[8]; 10 mg/kg i.v. QW x2,1538 ± 267 mm^3
same,Survival,[8]; 10 mg/kg i.v. QW x2,4/5
same,TGI (%),[9]; 1 mg/kg,−13.3%
same,TGI (%),[9]; 3 mg/kg,−0.6%
same,TGI (%),[9]; 10 mg/kg,4.1%
same,MFI,[10],13815
same,Positive Population,[10],67.00%
